Test results taken from the NIST ThermoML archive (doi:10.1021/je0602723).
Numbers after ± are expanded uncertainties. Each block holds one molecule with its values, some of them ahead of it.

Test: activity coefficient (dimensionless); of the first substance listed, at infinite dilution; xn = mol fraction of the nth substance listed
Conditions: Liquid, Chromatography, x1 = 0

Structure (SMILES): C1COCCO1 [1,4-dioxane] + CCOS(=O)(=O)[O-].CCn1cc[n+](C)c1
activity coefficient (312.4 K): 2.1 ± 0.14
activity coefficient (333.4 K): 2.08 ± 0.14
activity coefficient (354.2 K): 2.06 ± 0.14

Structure (SMILES): O=C1CCCCCN1 [1-aza-2-cycloheptanone] + CCOS(=O)(=O)[O-].CCn1cc[n+](C)c1
activity coefficient (412.3 K): 5.1 ± 0.35
activity coefficient (417.1 K): 6.1 ± 0.42
activity coefficient (427.1 K): 4.9 ± 0.33

Structure (SMILES): CC(C)CO [2-methyl-1-propanol] + CCOS(=O)(=O)[O-].CCn1cc[n+](C)c1
activity coefficient (322.7 K): 1.65 ± 0.11
activity coefficient (333.4 K): 1.51 ± 0.1
activity coefficient (343.9 K): 1.43 ± 0.09
activity coefficient (357.2 K): 1.24 ± 0.08
activity coefficient (386 K): 1.17 ± 0.07

Structure (SMILES): CCC(C)(C)O [2-methylbutan-2-ol] + CCOS(=O)(=O)[O-].CCn1cc[n+](C)c1
activity coefficient (302 K): 2.51 ± 0.17
activity coefficient (312.4 K): 2.44 ± 0.17
activity coefficient (333.4 K): 2.21 ± 0.15
activity coefficient (343.9 K): 2.14 ± 0.15
activity coefficient (354.4 K): 2.07 ± 0.14

Structure (SMILES): CC(C)(C)O [2-methylpropan-2-ol] + CCOS(=O)(=O)[O-].CCn1cc[n+](C)c1
activity coefficient (302 K): 2.02 ± 0.14
activity coefficient (312.4 K): 1.86 ± 0.13
activity coefficient (322.9 K): 1.74 ± 0.12
activity coefficient (333.4 K): 1.64 ± 0.11
activity coefficient (343.9 K): 1.57 ± 0.1
activity coefficient (354.4 K): 1.49 ± 0.1

Structure (SMILES): CC(C)=O [acetone] + CCOS(=O)(=O)[O-].CCn1cc[n+](C)c1
activity coefficient (323.1 K): 1.64 ± 0.11
activity coefficient (333.6 K): 1.63 ± 0.11
activity coefficient (343.9 K): 1.61 ± 0.11
activity coefficient (365 K): 1.56 ± 0.1
activity coefficient (375.4 K): 1.54 ± 0.1
activity coefficient (386 K): 1.5 ± 0.1

Structure (SMILES): CC#N [acetonitrile] + CCOS(=O)(=O)[O-].CCn1cc[n+](C)c1
activity coefficient (312.2 K): 0.81 ± 0.05
activity coefficient (333.4 K): 0.8 ± 0.05
activity coefficient (343.9 K): 0.78 ± 0.05
activity coefficient (354.3 K): 0.77 ± 0.05

Structure (SMILES): CCCCO [butan-1-ol] + CCOS(=O)(=O)[O-].CCn1cc[n+](C)c1
activity coefficient (323 K): 1.68 ± 0.11
activity coefficient (333.4 K): 1.59 ± 0.11
activity coefficient (343.8 K): 1.5 ± 0.1
activity coefficient (354.2 K): 1.42 ± 0.09
activity coefficient (365 K): 1.29 ± 0.08

Structure (SMILES): CCCCc1ccccc1 [butylbenzene] + CCOS(=O)(=O)[O-].CCn1cc[n+](C)c1
activity coefficient (343.7 K): 28.4 ± 1.9
activity coefficient (354.3 K): 26.3 ± 1.8
activity coefficient (364.8 K): 24.7 ± 1.7
activity coefficient (375.1 K): 23.2 ± 1.6
activity coefficient (385.6 K): 21.6 ± 1.5
activity coefficient (396.1 K): 20.1 ± 1.4

Structure (SMILES): ON=C1CCCCC1 [cyclohexanone oxime] + CCOS(=O)(=O)[O-].CCn1cc[n+](C)c1
activity coefficient (417.2 K): 0.57 ± 0.04
activity coefficient (427.5 K): 0.41 ± 0.03

Structure (SMILES): CCCCCCCCCC [decane] + CCOS(=O)(=O)[O-].CCn1cc[n+](C)c1
activity coefficient (301.8 K): 504 ± 35
activity coefficient (312.4 K): 445 ± 31
activity coefficient (322.9 K): 389 ± 27
activity coefficient (333.5 K): 331 ± 23

Structure (SMILES): CCCCCCC=O [heptanal] + CCOS(=O)(=O)[O-].CCn1cc[n+](C)c1
activity coefficient (303.3 K): 16.1 ± 1.1
activity coefficient (312.2 K): 15 ± 1
activity coefficient (322.8 K): 14 ± 0.96
activity coefficient (333.3 K): 13.1 ± 0.89
activity coefficient (354.2 K): 11.4 ± 0.78

Structure (SMILES): CCCCCC=O [hexanal] + CCOS(=O)(=O)[O-].CCn1cc[n+](C)c1
activity coefficient (312.2 K): 11.4 ± 0.78
activity coefficient (322.9 K): 11.3 ± 0.77
activity coefficient (333.4 K): 11.1 ± 0.76

Structure (SMILES): CCCC(=O)OC [methyl butanoate] + CCOS(=O)(=O)[O-].CCn1cc[n+](C)c1
activity coefficient (344 K): 7.29 ± 0.5
activity coefficient (354.5 K): 6.88 ± 0.47
activity coefficient (364.9 K): 6.58 ± 0.45
activity coefficient (375.4 K): 6.26 ± 0.43
activity coefficient (385.9 K): 5.9 ± 0.4

Structure (SMILES): CCCCCC(=O)OC [methyl hexanoate] + CCOS(=O)(=O)[O-].CCn1cc[n+](C)c1
activity coefficient (301.7 K): 20.1 ± 1.4
activity coefficient (312.4 K): 19.2 ± 1.3
activity coefficient (333.4 K): 17 ± 1.2
activity coefficient (343.9 K): 15.9 ± 1.1

Structure (SMILES): CCCCC(=O)OC [methyl pentanoate] + CCOS(=O)(=O)[O-].CCn1cc[n+](C)c1
activity coefficient (333.6 K): 11.6 ± 0.79
activity coefficient (344.1 K): 10.9 ± 0.74
activity coefficient (354.5 K): 10.2 ± 0.69
activity coefficient (364.9 K): 9.42 ± 0.64
activity coefficient (375.4 K): 8.57 ± 0.58
activity coefficient (385.9 K): 7.75 ± 0.53

Structure (SMILES): CCC(=O)OC [methyl propanoate] + CCOS(=O)(=O)[O-].CCn1cc[n+](C)c1
activity coefficient (322.9 K): 4.73 ± 0.32
activity coefficient (333.5 K): 4.58 ± 0.31
activity coefficient (344 K): 4.38 ± 0.3
activity coefficient (354.5 K): 4.1 ± 0.28
activity coefficient (364.9 K): 3.86 ± 0.26
activity coefficient (375.3 K): 3.61 ± 0.25

Structure (SMILES): CCCCCCCCC [nonane] + CCOS(=O)(=O)[O-].CCn1cc[n+](C)c1
activity coefficient (301.8 K): 357 ± 25
activity coefficient (312.4 K): 304 ± 21
activity coefficient (322.9 K): 249 ± 17
activity coefficient (333.5 K): 200 ± 14

Structure (SMILES): CCCCCCCC [octane] + CCOS(=O)(=O)[O-].CCn1cc[n+](C)c1
activity coefficient (301.9 K): 221 ± 15
activity coefficient (312.5 K): 184 ± 13
activity coefficient (322.9 K): 148 ± 10
activity coefficient (333.5 K): 119 ± 8.2

Structure (SMILES): CCCCC=O [pentanal] + CCOS(=O)(=O)[O-].CCn1cc[n+](C)c1
activity coefficient (333.5 K): 5.19 ± 0.35
activity coefficient (343.9 K): 5.1 ± 0.35
activity coefficient (354.4 K): 4.96 ± 0.34
activity coefficient (364.8 K): 4.82 ± 0.33
activity coefficient (375.2 K): 4.69 ± 0.32

Structure (SMILES): CCCCCc1ccccc1 [pentylbenzene] + CCOS(=O)(=O)[O-].CCn1cc[n+](C)c1
activity coefficient (354.3 K): 43.5 ± 3
activity coefficient (364.8 K): 40.3 ± 2.8
activity coefficient (375.1 K): 38 ± 2.6
activity coefficient (385.7 K): 35 ± 2.4
activity coefficient (396.1 K): 32.4 ± 2.2

Structure (SMILES): CC(C)O [propan-2-ol] + CCOS(=O)(=O)[O-].CCn1cc[n+](C)c1
activity coefficient (302.5 K): 1.49 ± 0.1
activity coefficient (312.2 K): 1.41 ± 0.09
activity coefficient (322.8 K): 1.29 ± 0.08
activity coefficient (333.4 K): 1.22 ± 0.08
activity coefficient (343.9 K): 1.15 ± 0.07

More lines, now with the values ahead:

activity coefficient (301.8 K): 2.98 ± 0.2
activity coefficient (312.3 K): 2.94 ± 0.2
activity coefficient (323 K): 2.88 ± 0.2
activity coefficient (333.5 K): 2.79 ± 0.19
activity coefficient (343.9 K): 2.69 ± 0.18
activity coefficient (354.4 K): 2.59 ± 0.18
activity coefficient (364.7 K): 2.5 ± 0.17
Structure (SMILES): c1ccccc1 [benzene] + CCOS(=O)(=O)[O-].CCn1cc[n+](C)c1

activity coefficient (312.5 K): 1.93 ± 0.13
activity coefficient (333.4 K): 1.65 ± 0.11
activity coefficient (344 K): 1.56 ± 0.1
activity coefficient (354.5 K): 1.45 ± 0.1
activity coefficient (364.9 K): 1.42 ± 0.09
Structure (SMILES): CCC(C)O (stereo unspecified) [butan-2-ol] + CCOS(=O)(=O)[O-].CCn1cc[n+](C)c1

activity coefficient (322.8 K): 3.47 ± 0.24
activity coefficient (333.4 K): 3.39 ± 0.23
activity coefficient (344 K): 3.35 ± 0.23
activity coefficient (354.5 K): 3.29 ± 0.22
activity coefficient (364.9 K): 3.23 ± 0.22
activity coefficient (375.3 K): 3.2 ± 0.22
activity coefficient (385.9 K): 3.14 ± 0.21
Structure (SMILES): CCCC=O [butanal] + CCOS(=O)(=O)[O-].CCn1cc[n+](C)c1

activity coefficient (302.4 K): 0.86 ± 0.06
activity coefficient (322.8 K): 0.79 ± 0.05
activity coefficient (333.5 K): 0.73 ± 0.05
activity coefficient (343.9 K): 0.69 ± 0.05
activity coefficient (354.3 K): 0.67 ± 0.05
Structure (SMILES): CCO [ethanol] + CCOS(=O)(=O)[O-].CCn1cc[n+](C)c1

activity coefficient (354.3 K): 9.16 ± 0.62
activity coefficient (364.7 K): 8.71 ± 0.59
activity coefficient (375.1 K): 8.21 ± 0.56
activity coefficient (385.7 K): 7.77 ± 0.53
Structure (SMILES): CCc1ccccc1 [ethylbenzene] + CCOS(=O)(=O)[O-].CCn1cc[n+](C)c1

activity coefficient (343.8 K): 3.52 ± 0.24
activity coefficient (354.2 K): 3.27 ± 0.22
activity coefficient (364.9 K): 3.06 ± 0.21
activity coefficient (375.2 K): 2.81 ± 0.19
Structure (SMILES): CCCCCCO [hexan-1-ol] + CCOS(=O)(=O)[O-].CCn1cc[n+](C)c1

activity coefficient (312.4 K): 0.41 ± 0.03
activity coefficient (323 K): 0.4 ± 0.03
activity coefficient (333.4 K): 0.39 ± 0.03
activity coefficient (343.8 K): 0.38 ± 0.03
activity coefficient (354.2 K): 0.36 ± 0.03
Structure (SMILES): CO [methanol] + CCOS(=O)(=O)[O-].CCn1cc[n+](C)c1

activity coefficient (301.8 K): 29.8 ± 2
activity coefficient (312.4 K): 28.4 ± 1.9
activity coefficient (322.9 K): 27.1 ± 1.9
activity coefficient (333.4 K): 25.5 ± 1.8
Structure (SMILES): CCCCCCC(=O)OC [methyl heptanoate] + CCOS(=O)(=O)[O-].CCn1cc[n+](C)c1

activity coefficient (303.3 K): 29.8 ± 2
activity coefficient (312.2 K): 28.3 ± 1.9
activity coefficient (322.8 K): 27.1 ± 1.9
activity coefficient (333.3 K): 26.1 ± 1.8
activity coefficient (343.8 K): 25.5 ± 1.7
Structure (SMILES): CCCCCCCC=O [octanal] + CCOS(=O)(=O)[O-].CCn1cc[n+](C)c1

activity coefficient (333.4 K): 2.58 ± 0.18
activity coefficient (343.9 K): 2.36 ± 0.16
activity coefficient (354.4 K): 2.22 ± 0.15
activity coefficient (364.7 K): 2.12 ± 0.14
Structure (SMILES): CCCCCO [pentan-1-ol] + CCOS(=O)(=O)[O-].CCn1cc[n+](C)c1

activity coefficient (322.8 K): 1.23 ± 0.08
activity coefficient (333.5 K): 1.12 ± 0.07
activity coefficient (343.9 K): 1.05 ± 0.07
activity coefficient (364.9 K): 0.91 ± 0.06
activity coefficient (375.4 K): 0.87 ± 0.06
Structure (SMILES): CCCO [propan-1-ol] + CCOS(=O)(=O)[O-].CCn1cc[n+](C)c1

activity coefficient (333.5 K): 1.94 ± 0.13
activity coefficient (343.9 K): 1.9 ± 0.13
activity coefficient (354.4 K): 1.84 ± 0.12
activity coefficient (364.8 K): 1.8 ± 0.12
activity coefficient (375.2 K): 1.74 ± 0.12
Structure (SMILES): CCC=O [propanal] + CCOS(=O)(=O)[O-].CCn1cc[n+](C)c1

activity coefficient (343.8 K): 16.8 ± 1.1
activity coefficient (354.3 K): 15.7 ± 1.1
activity coefficient (364.7 K): 14.9 ± 1
activity coefficient (375.1 K): 14 ± 0.95
activity coefficient (385.7 K): 13.2 ± 0.9
Structure (SMILES): CCCc1ccccc1 [propylbenzene] + CCOS(=O)(=O)[O-].CCn1cc[n+](C)c1
